The text below walks through data of paper PMC9505067, “Synthesis of Hydantoin Androgen Receptor Antagonists and Study on Their Antagonistic Activity” (Molecules, 2022).

One series has as its system LNCaP cells. The series can be described thus: Anti-proliferative activity assay in LNCaP cells (CCK-8). Type of series: cell-based. Particulars: 72 h treatment, normalized relative to DMSO-control treated cells, means ± SD, concentration not given. The protocol: We performed experiments accordingly to detect the anti-proliferative effect of compounds using the prostate cancer LNCaP cell line. The measurement of proliferative activity was performed after treatment with a concentration range of each compound for 72 h.
LNCaP cells were cultured in RPMI-1640 medium (Life Technologies, Carlsbad, CA, USA) supplemented with 10% (v/v) fetal bovine serum, 1% sodium pyruvate and 1% L-Glutamine. The cells were seeded into 96-well plates at a density of 8 × 10^4 cells per well. After 24 h incubation, the culture medium was removed and the cells were cultivated in the medium supplemented with 2% (v/v) fetal bovine serum for 2 days and then treated with different concentrations of test compounds for 3 days. Cell viability was measured with the CCK-8 kit (Dojindo).

Another series addresses T1, androgen receptor (AR) (Homo sapiens, UniProt P10275).
T1 sequence (P10275 1-920): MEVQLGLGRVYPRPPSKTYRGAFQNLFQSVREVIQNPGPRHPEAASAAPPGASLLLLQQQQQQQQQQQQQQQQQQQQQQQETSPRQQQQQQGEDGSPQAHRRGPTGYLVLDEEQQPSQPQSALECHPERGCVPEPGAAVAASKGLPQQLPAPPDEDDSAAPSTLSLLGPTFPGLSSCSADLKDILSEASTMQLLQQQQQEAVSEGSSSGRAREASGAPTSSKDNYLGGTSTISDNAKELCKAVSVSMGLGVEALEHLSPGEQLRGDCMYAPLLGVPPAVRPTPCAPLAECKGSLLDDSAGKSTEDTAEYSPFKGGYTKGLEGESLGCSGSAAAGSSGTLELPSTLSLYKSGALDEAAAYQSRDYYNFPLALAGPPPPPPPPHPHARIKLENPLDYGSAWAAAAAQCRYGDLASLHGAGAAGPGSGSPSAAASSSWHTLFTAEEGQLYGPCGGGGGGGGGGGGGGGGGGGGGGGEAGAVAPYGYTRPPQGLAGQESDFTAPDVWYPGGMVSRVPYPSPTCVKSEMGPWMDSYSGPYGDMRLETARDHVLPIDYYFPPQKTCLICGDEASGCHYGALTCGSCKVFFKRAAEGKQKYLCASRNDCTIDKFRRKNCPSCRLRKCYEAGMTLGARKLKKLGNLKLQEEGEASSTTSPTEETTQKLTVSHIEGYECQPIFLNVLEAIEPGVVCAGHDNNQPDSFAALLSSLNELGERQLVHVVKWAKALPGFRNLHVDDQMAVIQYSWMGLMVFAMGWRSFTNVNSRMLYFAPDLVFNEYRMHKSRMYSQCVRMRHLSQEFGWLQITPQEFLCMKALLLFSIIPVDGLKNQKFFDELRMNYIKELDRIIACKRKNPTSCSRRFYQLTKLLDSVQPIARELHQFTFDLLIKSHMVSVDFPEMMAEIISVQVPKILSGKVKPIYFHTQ
The series can be described thus: AR antagonist luciferase gene reporter assay (AR plasmid pSVAR0 + MMTV-Luc, DHT at EC80).

The mark [1] stands for this setting: Antagonist Activity in CV-1 IC50, luciferase reporter in AR-transfected cells, DHT at EC80, 24 h incubation, means ± SD of three independent experiments.
[2] abbreviates: luciferase reporter in AR-transfected cells, DHT at EC80, 24 h, enzalutamide = 100, means ± SD of three independent experiments.

Where two headings read alike, the source gives them in different places.

The compound `CC1(CO)C(=O)N(c2ccc(C#N)c(C(F)(F)F)c2)C(=S)N1c1ccccc1` (stereo not drawn) [6a, 4-(4-(hydroxymethyl)-4-methyl-5-oxo-3-phenyl-2-thioxoimidazolidin-1-yl)-2-(trifluoromethyl)benzonitrile] came in with a melting point of 216 to 219 °C. In the series with LNCaP cells, the “Proliferative/Anti-Proliferative Activity in LNCAP” value was found to be 149.3 ± 14.2%. The “Antagonist Activity in CV-1 Efficacy” value at androgen receptor (AR) is recorded as 101 ± 6.7%. Moreover, the IC50 at androgen receptor (AR) (setting [1]) came to 46.8 ± 6.2 nM.
The compound `CC1(CO)C(=O)N(c2ccc(C#N)c(C(F)(F)F)c2)C(=S)N1c1ccc(F)cc1` (stereo not drawn) [6c, 4-(3-(4-fluorophenyl)-4-(hydroxymethyl)-4-methyl-5-oxo-2-thioxoimidazolidin-1-yl)-2-(trifluoromethyl)benzonitrile] yielded a melting point of 231 to 233 °C. Besides, the “Proliferative/Anti-Proliferative Activity in LNCAP” value in the series with LNCaP cells is 118.7 ± 22.1%. Also, at androgen receptor (AR), the “Antagonist Activity in CV-1 Efficacy” value is given as 91 ± 5.9%. For the same compound, the IC50 on androgen receptor (AR) (setting [1]) came out at 46.2 ± 4.1 nM.
Take `CC1(CO)C(=O)N(c2ccc(C#N)c(C(F)(F)F)c2)C(=O)N1c1ccc(C(F)(F)F)cc1` (stereo not drawn) [7i, 4-(4-(hydroxymethyl)-4-methyl-2,5-dioxo-3-(4-(trifluoromethyl)phenyl)imidazolidin-1-yl)-2-(trifluoromethyl)benzonitrile]: the melting point was in the range of 161 to 163 °C. The “Antagonist Activity in CV-1 Efficacy” value on androgen receptor (AR) came to 99 ± 12.5%. Further, the IC50 at androgen receptor (AR) (setting [1]) is 149 ± 30.4 nM.
As for `COC(=O)c1ccc(N2C(=O)N(c3ccc(C#N)c(C(F)(F)F)c3)C(=O)C2(C)CO)cc1` (stereo not drawn) [7j, methyl 4-(3-(4-cyano-3-(trifluoromethyl)phenyl)-5-(hydroxymethyl)-5-methyl-2,4-dioxoimidazolidin-1-yl)benzoate], the melting point was 139 to 141 °C. In addition, the “Antagonist Activity in CV-1 Efficacy” value at androgen receptor (AR) was found to be 96 ± 10.8%. In addition, the IC50 on androgen receptor (AR) (setting [1]) is 139 ± 36.2 nM.
For `CC1(CO)C(=O)N(c2ccc(C#N)c(C(F)(F)F)c2)C(=S)N1c1ccc(O)cc1` (stereo not drawn) [11a, 4-(4-(hydroxymethyl)-3-(4-hydroxyphenyl)-4-methyl-5-oxo-2-thioxoimidazolidin-1-yl)-2-(trifluoromethyl)benzonitrile], the melting point lay in the range of 203 to 205 °C. In addition, the “Antagonist Activity in CV-1 Efficacy” value on androgen receptor (AR) is 90 ± 7.5%. Further, the IC50 on androgen receptor (AR) (setting [1]) is 3640 ± 932 nM.
Consider `CC1(CO)C(=O)N(c2ccc(C#N)c(C(F)(F)F)c2)C(=O)N1c1ccc(O)cc1` (stereo not drawn) [11b, 4-(4-(hydroxymethyl)-3-(4-hydroxyphenyl)-4-methyl-2,5-dioxoimidazolidin-1-yl)-2-(trifluoromethyl)benzonitrile], for which the melting point lay within 110 to 112 °C. For the same compound, the “Antagonist Activity in CV-1 Efficacy” value at androgen receptor (AR) came out at 100 ± 3.4%. On androgen receptor (AR) (setting [1]), the IC50 amounted to 2360 ± 1710 nM.
In turn, `CC1(CO)C(=O)N(c2cnc(C#N)c(C(F)(F)F)c2)C(=S)N1c1ccccc1` (stereo not drawn) [19a, 5-(4-(hydroxymethyl)-4-methyl-5-oxo-3-phenyl-2-thioxoimidazolidin-1-yl)-3-(trifluoromethyl)picolinonitrile] had a melting point of 203 to 205 °C. Further, the “Proliferative/Anti-Proliferative Activity in LNCAP” value in the series with LNCaP cells turned out to be 122.8 ± 16.8%. Moreover, the “Antagonist Activity in CV-1 Efficacy” value at androgen receptor (AR) stood at 61.27 ± 12.44%. In addition, the IC50 at androgen receptor (AR) (setting [1]) is 18.4 ± 8.65 nM.
As to `CC1(CO)C(=O)N(c2cnc(C#N)c(C(F)(F)F)c2)C(=S)N1c1ccc(F)cc1` (stereo not drawn) [19b, 5-(3-(4-fluorophenyl)-4-(hydroxymethyl)-4-methyl-5-oxo-2-thioxoimidazolidin-1-yl)-3-(trifluoromethyl)picolinonitrile], the melting point was in the range of 181 to 183 °C. Moreover, the “Proliferative/Anti-Proliferative Activity in LNCAP” value in the series with LNCaP cells is given as 65.7 ± 20.5%. The IC50 on androgen receptor (AR) is 32.5 ± 22.1 nM. Further, the “Antagonist Activity in CV-1 Efficacy” value at androgen receptor (AR) (setting [2]) is on record as 75.55 ± 11.87%.
For the compound `CNC(=O)c1ccc(N2C(=S)N(c3cnc(C#N)c(C(F)(F)F)c3)C(=O)C2(C)CO)cc1F` (stereo not drawn) [19c, 4-(3-(6-cyano-5-(trifluoromethyl)pyridin-3-yl)-5-(hydroxymethyl)-5-methyl-4-oxo-2-thioxoimidazolidin-1-yl)-2-fluoro-N-methylbenzamide], the melting point is 127 to 129 °C. In addition, the IC50 on androgen receptor (AR) was found to be 903 ± 602 nM. Moreover, the “Antagonist Activity in CV-1 Efficacy” value on androgen receptor (AR) (setting [2]) turned out to be 55.46 ± 14.74%.
Taken in the same sequence, the figures for `CN1CCC(Oc2ccc(N3C(=S)N(c4cnc(C#N)c(C(F)(F)F)c4)C(=O)C3(C)CO)cc2)CC1` (stereo not drawn) [19d, 5-(4-(hydroxymethyl)-4-methyl-3-(4-((1-methylpiperidin-4-yl)oxy)phenyl)-5-oxo-2-thioxoimidazolidin-1-yl)-3-(trifluoromethyl)picolinonitrile] were 119 to 121 °C, 139 ± 28.1 nM and 81.64 ± 5.92%.
Consider `C[C@]12CCC(=O)C[C@@H]1CC[C@@H]1[C@@H]2CC[C@]2(C)[C@@H](O)CC[C@@H]12` [DHT, reference compound], for which, in the series on LNCaP cells, the “Proliferative/Anti-Proliferative Activity in LNCAP” value is recorded as 186.7 ± 5.6%.
With `CNC(=O)c1ccc(N2C(=S)N(c3ccc(C#N)c(C(F)(F)F)c3)C(=O)C2(C)C)cc1F` [Enzalutamide, reference compound], the “Proliferative/Anti-Proliferative Activity in LNCAP” value with LNCaP cells was 71.4 ± 7.8%.
`CC(=O)Nc1ccc(N2C(=S)N(c3ccc(C#N)c(C(F)(F)F)c3)C(=O)C2(C)CO)cc1` (stereo not drawn) [compound 9, N-(4-(3-(4-cyano-3-(trifluoromethyl)phenyl)-5-(hydroxymethyl)-5-methyl-4-oxo-2-thioxoimidazolidin-1-yl)phenyl)acetamide] gave a melting point of 126 to 128 °C. Besides, the “Antagonist Activity in CV-1 Efficacy” value at androgen receptor (AR) is recorded as 95 ± 3.1%. In addition, the IC50 at androgen receptor (AR) (setting [1]) came out at 939 ± 124 nM.
On to `CC(=O)Nc1ccc(N2C(=O)N(c3ccc(C#N)c(C(F)(F)F)c3)C(=O)C2(C)CO)cc1` (stereo not drawn) [compound 10, N-(4-(3-(4-cyano-3-(trifluoromethyl)phenyl)-5-(hydroxymethyl)-5-methyl-2,4-dioxoimidazolidin-1-yl)phenyl)acetamide], for which the melting point lay within 124 to 126 °C. Moreover, the “Antagonist Activity in CV-1 Efficacy” value at androgen receptor (AR) is given as 84 ± 8.6%. Further, the IC50 on androgen receptor (AR) (setting [1]) is above 5000 nM.
